Assay results taken from patent US7855191B2, “Agent having a destructive effect on malignant tumors and method for the production thereof” (C.Y.L. Pharmazeutika GmbH, priority 2002, dated 2010).

Assays:
[1] = Compatibility of selenium compounds with alpha-ketoglutaric acid in the preparation; format: physicochemical; conditions: for reaction / compatibility with alpha-ketoglutaric acid: on addition to the preparation of EP 326826 B1
Procedure: Thus initially the research was carried out by the addition of selenium in the form of selenite. […] Attempts were made to suppress this redox reaction by incorporating the selenium in organic compounds. As such a compound, finally seleno-methionine was selected. […] However, with the addition of this compound as a complement to the composition of European Patent 326826 B1 there is a danger that this substance will be incorporated into body proteins, and effect which might reduce the desired effect of the N-acetyl-seleno-L-methionine or cause the effect of that compound to be completely lost.

malignant brain tumors = conditions: cited from earlier work
mammary carcinoma = conditions: rats with 1-methyl-1-nitro urea induced mammary cancer; cited from earlier work

Row | Structure (SMILES) | reaction / compatibility with alpha-ketoglutaric acid [1] | general well-being of the patients (malignant brain tumors; manifested by erythrocyte number, hemoglobin value, thrombocyte count) | patients who felt a reduction in unpleasant side effects (malignant brain tumors; patients with malignant brain tumors) | density of the intra tumoral microvessels in the mammary carcinoma (mammary carcinoma) | Maillard reaction with ketoglutaric acid ([1]; especially at the higher temperatures of heat sterilization)
1 | O=[Se]([O-])[O-].[Na+].[Na+] [selenite, Na-selenite] | amorphous selenium precipitated out | improvement in the general well-being | 76% | significantly reduced | 
2 | C[Se]CC[C@H](N)C(=O)O [seleno-methionine] | does not react with the alphaketoglutaric acid |  |  |  | undergoes a Maillard reaction with the ketoglutaric acid
